Experiment [1] addresses Sodium-dependent noradrenaline transporter (Homo sapiens, UniProt P23975).
Experiment [2] deals with Voltage-dependent L-type calcium channel subunit alpha-1C (Rattus norvegicus, UniProt P22002). In kind it is functional.
The target in experiment [3] is T1, Muscarinic acetylcholine receptor M2 (Homo sapiens, UniProt P08172).
T1 sequence (P08172 whole entry): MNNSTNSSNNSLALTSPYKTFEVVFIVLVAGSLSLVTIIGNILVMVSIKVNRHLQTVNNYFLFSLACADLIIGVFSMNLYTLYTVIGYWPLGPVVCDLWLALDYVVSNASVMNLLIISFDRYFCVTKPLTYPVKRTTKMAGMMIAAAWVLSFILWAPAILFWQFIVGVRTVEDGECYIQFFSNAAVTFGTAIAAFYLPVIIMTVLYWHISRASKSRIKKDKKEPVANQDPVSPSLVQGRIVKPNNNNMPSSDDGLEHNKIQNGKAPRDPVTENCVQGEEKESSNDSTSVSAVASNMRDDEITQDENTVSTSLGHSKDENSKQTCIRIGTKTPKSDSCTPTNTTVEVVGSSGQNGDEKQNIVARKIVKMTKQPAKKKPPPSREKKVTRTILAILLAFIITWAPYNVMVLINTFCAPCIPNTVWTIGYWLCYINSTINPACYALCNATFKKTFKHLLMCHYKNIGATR
In kind it is functional, cell-based.

Experiment [4] deals with 5-hydroxytryptamine receptor 2B (Homo sapiens, UniProt P41595). In kind it is functional, cell-based.
5-hydroxytryptamine receptor 2B, sequence (P41595 whole entry): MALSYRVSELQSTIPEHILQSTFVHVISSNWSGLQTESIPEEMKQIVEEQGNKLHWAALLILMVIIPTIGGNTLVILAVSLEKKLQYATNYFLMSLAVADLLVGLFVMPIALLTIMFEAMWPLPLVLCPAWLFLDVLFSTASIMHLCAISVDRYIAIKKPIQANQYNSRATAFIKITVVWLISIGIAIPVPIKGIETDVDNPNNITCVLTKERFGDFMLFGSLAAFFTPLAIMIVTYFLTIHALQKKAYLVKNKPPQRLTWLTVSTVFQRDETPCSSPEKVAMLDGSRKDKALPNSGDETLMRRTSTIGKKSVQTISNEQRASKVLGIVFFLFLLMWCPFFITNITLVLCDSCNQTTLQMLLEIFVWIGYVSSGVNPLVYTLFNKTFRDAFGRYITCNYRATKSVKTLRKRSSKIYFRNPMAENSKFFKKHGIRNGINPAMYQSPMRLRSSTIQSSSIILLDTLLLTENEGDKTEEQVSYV
Experiment [5] has as its target Beta-2 adrenergic receptor (Homo sapiens, UniProt P07550).
Experiment [6] has as its target T2, 5-hydroxytryptamine receptor 2C (Homo sapiens, UniProt P28335).
T2 sequence (P28335 whole entry): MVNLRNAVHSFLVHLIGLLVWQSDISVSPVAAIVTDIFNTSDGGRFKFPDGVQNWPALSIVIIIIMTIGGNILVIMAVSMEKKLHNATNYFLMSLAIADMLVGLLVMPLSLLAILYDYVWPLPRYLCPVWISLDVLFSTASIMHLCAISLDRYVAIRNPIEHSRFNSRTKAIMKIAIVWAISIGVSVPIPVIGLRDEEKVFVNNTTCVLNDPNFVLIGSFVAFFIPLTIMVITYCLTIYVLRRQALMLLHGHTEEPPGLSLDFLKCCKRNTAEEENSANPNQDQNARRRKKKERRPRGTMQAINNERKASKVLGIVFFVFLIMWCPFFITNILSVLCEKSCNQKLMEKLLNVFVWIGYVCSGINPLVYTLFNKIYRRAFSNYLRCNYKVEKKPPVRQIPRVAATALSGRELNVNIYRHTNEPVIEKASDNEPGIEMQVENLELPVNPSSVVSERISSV

Experiment [7] has as its target 3',5'-cyclic-AMP phosphodiesterase 4D (Homo sapiens, UniProt Q08499). In kind it is functional.
The target of experiment [8] is Gamma-aminobutyric acid receptor subunit alpha-1 (Rattus norvegicus, UniProt P62813).
Gamma-aminobutyric acid receptor subunit alpha-1, sequence (P62813 whole entry): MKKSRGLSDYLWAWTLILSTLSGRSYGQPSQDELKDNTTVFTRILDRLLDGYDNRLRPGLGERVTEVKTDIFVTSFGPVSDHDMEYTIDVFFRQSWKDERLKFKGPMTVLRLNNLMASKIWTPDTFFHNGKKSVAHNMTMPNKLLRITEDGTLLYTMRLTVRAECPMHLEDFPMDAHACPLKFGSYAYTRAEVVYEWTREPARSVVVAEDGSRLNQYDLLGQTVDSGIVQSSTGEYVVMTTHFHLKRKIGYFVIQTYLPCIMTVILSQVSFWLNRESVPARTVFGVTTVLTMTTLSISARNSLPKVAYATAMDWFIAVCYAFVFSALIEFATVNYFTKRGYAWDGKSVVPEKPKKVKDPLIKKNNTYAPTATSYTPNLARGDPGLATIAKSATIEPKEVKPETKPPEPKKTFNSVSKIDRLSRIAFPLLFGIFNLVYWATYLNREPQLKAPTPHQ
In experiment [9] the target is T3, Prostaglandin G/H synthase 1 (Rattus norvegicus, UniProt Q63921).
T3 sequence (Q63921 whole entry): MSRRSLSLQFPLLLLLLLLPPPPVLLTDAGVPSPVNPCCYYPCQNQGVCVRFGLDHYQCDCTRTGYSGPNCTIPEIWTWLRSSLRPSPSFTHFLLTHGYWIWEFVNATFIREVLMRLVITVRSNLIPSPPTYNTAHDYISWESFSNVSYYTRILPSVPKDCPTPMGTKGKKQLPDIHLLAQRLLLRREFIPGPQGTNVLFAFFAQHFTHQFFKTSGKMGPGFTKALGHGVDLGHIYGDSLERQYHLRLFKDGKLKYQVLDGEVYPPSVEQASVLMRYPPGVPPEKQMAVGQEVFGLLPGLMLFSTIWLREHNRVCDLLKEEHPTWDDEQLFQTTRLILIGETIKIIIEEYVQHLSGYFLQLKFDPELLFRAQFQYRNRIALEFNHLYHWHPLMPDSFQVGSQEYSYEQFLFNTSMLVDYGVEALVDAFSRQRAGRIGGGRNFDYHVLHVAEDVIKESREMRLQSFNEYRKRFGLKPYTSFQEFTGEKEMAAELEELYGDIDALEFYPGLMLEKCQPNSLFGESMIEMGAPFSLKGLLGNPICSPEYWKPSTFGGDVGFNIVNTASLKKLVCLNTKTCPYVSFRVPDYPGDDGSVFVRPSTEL
In kind it is functional.

In experiment [10] the target is T1, Muscarinic acetylcholine receptor M2. In kind it is functional, cell-based. This is another data set of the same source.
For experiment [11], the target named is Delta-type opioid receptor (Homo sapiens, UniProt P41143).
For the next experiment, the target named is T4, Progesterone receptor (Homo sapiens, UniProt P06401).
T4 sequence (P06401 whole entry): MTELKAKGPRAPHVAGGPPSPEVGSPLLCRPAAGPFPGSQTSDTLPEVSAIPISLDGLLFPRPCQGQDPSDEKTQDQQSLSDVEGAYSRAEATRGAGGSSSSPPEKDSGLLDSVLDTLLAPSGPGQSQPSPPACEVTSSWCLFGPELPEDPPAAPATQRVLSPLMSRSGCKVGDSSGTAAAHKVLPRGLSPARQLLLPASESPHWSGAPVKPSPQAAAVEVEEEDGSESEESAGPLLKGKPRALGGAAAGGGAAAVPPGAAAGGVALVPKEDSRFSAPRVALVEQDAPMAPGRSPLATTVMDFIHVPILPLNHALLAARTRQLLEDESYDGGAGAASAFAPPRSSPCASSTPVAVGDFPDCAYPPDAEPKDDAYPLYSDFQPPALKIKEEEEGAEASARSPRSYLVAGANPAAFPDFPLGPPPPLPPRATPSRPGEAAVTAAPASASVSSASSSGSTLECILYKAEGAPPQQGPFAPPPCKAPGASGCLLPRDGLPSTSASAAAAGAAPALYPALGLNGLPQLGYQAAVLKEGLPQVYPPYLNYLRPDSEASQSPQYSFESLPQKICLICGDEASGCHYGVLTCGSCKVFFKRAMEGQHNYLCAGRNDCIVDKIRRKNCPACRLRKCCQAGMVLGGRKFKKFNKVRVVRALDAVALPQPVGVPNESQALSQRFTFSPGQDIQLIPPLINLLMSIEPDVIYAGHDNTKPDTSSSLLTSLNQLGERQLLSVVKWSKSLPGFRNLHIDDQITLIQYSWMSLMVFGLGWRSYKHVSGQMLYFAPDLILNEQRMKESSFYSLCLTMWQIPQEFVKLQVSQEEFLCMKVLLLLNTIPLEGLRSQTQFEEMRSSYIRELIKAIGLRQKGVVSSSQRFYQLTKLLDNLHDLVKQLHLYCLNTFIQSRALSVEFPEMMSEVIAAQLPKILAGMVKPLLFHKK
In kind it is functional.

The term AC50 denotes the concentration at which the activity in the assay is half-maximal.

Where a SMILES comes first, the peptide text is derived from it. [ ]: non-standard residue; d: D form. pGlu = O=C1CC[C@@H](C(=O)O)N1; Thz = O=C(O)[C@@H]1CSCN1
Further: assay procedure not described here.

3',5'-cyclic-AMP phosphodiesterase 4D, sequence (Q08499 whole entry): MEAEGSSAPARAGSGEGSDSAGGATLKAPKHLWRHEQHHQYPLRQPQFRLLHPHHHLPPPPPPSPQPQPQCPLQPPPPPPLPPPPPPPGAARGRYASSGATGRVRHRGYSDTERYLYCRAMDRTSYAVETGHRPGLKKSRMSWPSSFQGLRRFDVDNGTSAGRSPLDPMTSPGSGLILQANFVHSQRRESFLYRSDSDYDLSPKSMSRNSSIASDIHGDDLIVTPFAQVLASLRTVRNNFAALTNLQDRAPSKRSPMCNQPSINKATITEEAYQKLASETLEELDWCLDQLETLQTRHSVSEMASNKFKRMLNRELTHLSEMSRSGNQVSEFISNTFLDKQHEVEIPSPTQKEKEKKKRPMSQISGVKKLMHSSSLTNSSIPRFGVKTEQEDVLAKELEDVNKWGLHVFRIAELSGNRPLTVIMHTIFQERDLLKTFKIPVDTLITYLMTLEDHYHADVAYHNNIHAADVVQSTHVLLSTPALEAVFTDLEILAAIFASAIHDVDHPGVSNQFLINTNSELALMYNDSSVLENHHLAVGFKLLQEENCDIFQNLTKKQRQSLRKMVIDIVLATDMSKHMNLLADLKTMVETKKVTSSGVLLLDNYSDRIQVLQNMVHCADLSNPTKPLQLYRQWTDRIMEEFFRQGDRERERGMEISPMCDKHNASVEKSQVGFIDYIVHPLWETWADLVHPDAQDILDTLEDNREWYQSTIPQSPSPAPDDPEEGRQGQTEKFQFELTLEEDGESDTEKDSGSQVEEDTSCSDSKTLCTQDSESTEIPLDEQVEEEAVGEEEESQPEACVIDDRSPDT
Voltage-dependent L-type calcium channel subunit alpha-1C, sequence (P22002 whole entry): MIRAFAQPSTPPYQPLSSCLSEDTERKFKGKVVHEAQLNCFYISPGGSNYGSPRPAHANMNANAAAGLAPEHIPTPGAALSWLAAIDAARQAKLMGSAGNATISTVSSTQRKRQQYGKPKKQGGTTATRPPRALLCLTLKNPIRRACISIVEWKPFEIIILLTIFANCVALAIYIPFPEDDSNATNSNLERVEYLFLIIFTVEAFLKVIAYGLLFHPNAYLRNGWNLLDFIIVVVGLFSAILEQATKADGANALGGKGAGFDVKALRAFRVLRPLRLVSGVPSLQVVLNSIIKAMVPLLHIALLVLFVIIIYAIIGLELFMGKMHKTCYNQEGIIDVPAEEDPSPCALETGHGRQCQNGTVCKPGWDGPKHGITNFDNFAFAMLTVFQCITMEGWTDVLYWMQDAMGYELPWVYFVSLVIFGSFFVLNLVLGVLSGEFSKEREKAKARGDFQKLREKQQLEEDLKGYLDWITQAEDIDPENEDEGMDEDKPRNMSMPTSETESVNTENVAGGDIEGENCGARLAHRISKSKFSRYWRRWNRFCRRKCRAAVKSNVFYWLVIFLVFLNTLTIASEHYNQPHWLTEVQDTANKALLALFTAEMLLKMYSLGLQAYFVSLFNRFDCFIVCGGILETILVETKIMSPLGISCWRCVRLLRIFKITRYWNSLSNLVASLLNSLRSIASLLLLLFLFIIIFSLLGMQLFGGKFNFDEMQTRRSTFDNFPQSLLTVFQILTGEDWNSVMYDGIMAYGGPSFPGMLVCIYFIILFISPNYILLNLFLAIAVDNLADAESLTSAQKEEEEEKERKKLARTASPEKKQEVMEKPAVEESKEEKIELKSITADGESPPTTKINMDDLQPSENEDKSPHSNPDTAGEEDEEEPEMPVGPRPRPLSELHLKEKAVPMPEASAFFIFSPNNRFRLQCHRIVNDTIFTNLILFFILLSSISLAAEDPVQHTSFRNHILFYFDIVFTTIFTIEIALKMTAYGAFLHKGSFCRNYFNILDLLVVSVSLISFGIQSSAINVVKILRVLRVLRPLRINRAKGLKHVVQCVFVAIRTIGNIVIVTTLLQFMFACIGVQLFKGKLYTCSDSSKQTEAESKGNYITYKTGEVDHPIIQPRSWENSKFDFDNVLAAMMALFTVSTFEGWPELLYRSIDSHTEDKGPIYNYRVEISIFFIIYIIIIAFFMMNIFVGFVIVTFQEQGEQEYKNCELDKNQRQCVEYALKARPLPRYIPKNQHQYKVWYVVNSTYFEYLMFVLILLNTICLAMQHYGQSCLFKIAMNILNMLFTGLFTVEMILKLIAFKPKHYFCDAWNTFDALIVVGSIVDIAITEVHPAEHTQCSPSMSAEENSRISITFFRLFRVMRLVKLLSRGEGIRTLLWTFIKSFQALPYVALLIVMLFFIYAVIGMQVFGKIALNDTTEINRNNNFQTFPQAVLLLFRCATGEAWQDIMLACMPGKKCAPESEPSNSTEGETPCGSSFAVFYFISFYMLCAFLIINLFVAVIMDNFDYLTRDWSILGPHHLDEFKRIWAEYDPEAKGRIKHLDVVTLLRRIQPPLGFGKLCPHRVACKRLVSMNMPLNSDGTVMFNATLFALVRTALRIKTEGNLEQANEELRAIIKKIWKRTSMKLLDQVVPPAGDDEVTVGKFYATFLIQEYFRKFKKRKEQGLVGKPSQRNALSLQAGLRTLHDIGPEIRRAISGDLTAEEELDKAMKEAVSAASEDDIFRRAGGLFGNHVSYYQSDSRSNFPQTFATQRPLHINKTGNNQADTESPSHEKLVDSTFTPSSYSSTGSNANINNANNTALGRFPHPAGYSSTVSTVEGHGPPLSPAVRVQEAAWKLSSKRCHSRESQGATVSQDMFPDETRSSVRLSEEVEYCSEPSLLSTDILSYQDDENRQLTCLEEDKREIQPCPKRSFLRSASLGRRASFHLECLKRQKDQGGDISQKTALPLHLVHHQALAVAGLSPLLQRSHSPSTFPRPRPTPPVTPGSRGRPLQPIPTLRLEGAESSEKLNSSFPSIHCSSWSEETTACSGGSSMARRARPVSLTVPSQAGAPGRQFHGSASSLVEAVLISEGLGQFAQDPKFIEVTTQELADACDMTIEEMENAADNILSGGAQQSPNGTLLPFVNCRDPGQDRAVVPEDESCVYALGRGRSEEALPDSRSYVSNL
Sodium-dependent noradrenaline transporter, sequence (P23975 whole entry): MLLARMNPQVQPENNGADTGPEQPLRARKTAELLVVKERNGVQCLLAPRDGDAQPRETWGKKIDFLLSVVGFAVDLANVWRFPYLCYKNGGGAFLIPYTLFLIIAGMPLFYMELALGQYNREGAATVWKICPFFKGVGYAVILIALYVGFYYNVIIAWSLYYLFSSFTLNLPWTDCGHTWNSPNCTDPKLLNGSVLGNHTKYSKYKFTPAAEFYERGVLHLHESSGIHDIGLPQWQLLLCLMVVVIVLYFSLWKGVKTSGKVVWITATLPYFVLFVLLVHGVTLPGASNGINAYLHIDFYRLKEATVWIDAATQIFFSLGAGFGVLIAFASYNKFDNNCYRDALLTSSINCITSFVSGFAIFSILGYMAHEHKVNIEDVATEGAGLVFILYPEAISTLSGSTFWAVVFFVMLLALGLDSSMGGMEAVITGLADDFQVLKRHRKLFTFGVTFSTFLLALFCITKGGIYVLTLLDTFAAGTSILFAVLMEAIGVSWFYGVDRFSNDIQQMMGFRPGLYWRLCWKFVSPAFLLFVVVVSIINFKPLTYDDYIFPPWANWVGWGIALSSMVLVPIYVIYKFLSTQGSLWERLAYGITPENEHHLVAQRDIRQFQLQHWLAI
Beta-2 adrenergic receptor, sequence (P07550 whole entry): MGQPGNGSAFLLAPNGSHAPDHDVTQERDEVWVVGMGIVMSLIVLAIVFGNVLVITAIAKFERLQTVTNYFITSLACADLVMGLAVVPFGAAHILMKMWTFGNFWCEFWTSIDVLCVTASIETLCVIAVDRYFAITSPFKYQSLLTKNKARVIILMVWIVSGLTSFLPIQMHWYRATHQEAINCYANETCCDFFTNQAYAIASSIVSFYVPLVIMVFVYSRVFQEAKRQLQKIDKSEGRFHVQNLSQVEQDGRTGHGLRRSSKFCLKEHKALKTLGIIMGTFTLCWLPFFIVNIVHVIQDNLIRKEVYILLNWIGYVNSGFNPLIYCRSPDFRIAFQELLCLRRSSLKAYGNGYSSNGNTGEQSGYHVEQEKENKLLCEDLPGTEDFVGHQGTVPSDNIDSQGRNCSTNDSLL

For `Cn1c(=O)c2c(ncn2CCOC(=O)C(C)(C)Oc2ccc(Cl)cc2)n(C)c1=O` [THEOFIBRATE], the AC50 in [1], in experiment [2], in experiment [3], in [4], in experiment [5] and in [6] was over 30 µM in each case. For the same molecule, the AC50 (in experiment [7]; in experiment [8]; in experiment [9]; in experiment [10]; in [11]; at Progesterone receptor) was over 30 µM in each case.

Take `NNC(=O)c1ccncc1` [ISONIAZID]: the AC50 in experiment [1], in experiment [2], in [3], in experiment [4], in [5] and in experiment [6] was over 30 µM in each case. For the same molecule, the AC50 (in [7]; in experiment [8]; in experiment [9]; in experiment [10]; in [11]; at Progesterone receptor) was over 30 µM each time.

With `CCN1CC(CCN2CCOCC2)C(c2ccccc2)(c2ccccc2)C1=O` (stereo not given) [DOXAPRAM], the AC50 is over 30 µM in [1]; over 30 µM in [2]; over 30 µM in experiment [3]; over 30 µM in experiment [4]; over 30 µM in experiment [5]; 0.071 µM in [6]. Moreover, the AC50 (in experiment [7]; in [8]; in [9]; in experiment [10]; in experiment [11]; at Progesterone receptor) was over 30 µM throughout.

For the molecule `CC(c1cc2ccccc2s1)N(O)C(N)=O` (stereo not given) [ZILEUTON], the AC50 in [1] was over 10 µM; in [2], over 10 µM; in experiment [3] it was over 10 µM; in [4], over 10 µM; in experiment [5] it was over 10 µM; in experiment [6] it was over 30 µM. Further, the AC50 was over 30 µM in experiment [7]; over 10 µM in experiment [8]; over 30 µM in experiment [9]; over 10 µM in [10]; over 30 µM in [11]; over 30 µM at Progesterone receptor.

Consider `COc1cc(C(=O)NC2CCCNC2)cc(OC)c1OC` (stereo not given) [TROXIPIDE], for which the half-maximal activity concentration (AC50) in experiment [1], in experiment [2], in experiment [3], in experiment [4], in [5] and in experiment [6] was over 30 µM throughout. In addition, the AC50 in experiment [7] was over 30 µM; in experiment [8] it was over 30 µM; in experiment [9], over 10 µM; in experiment [10] it was over 30 µM; in experiment [11], over 30 µM; at Progesterone receptor, over 30 µM.

Regarding `COc1ccc(C2C(=O)c3ccccc3C2=O)cc1` [ANISINDIONE], the AC50 in experiment [1] was over 10 µM; in experiment [2], over 10 µM; in [3], over 10 µM; in [4] it was over 10 µM; in experiment [5], over 10 µM; in experiment [6] it was over 30 µM. Also, the half-maximal activity concentration (AC50) in experiment [7] was over 30 µM; in experiment [8], over 10 µM; in [9], 13 µM; in experiment [10], over 10 µM; in [11], over 30 µM; on Progesterone receptor, over 30 µM.

With `COc1ccc(CN2CCN(C(c3ccc(F)cc3)c3ccc(F)cc3)CC2)c(OC)c1OC` [LOMERIZINE], the AC50 was 18 µM in experiment [1]; 2.4 µM in experiment [2]; 24 µM in experiment [3]; 5.9 µM in experiment [4]; over 30 µM in experiment [5]; 16 µM in [6]. In addition, the AC50 (in [7]; in [8]; in [9]; in experiment [10]; in experiment [11]; on Progesterone receptor) was over 30 µM each time.

As for `O=C1CC[C@@H](C(=O)N2CSC[C@H]2C(=O)O)N1` [PIDOTIMOD] ([pGlu]-[Thz]-OH), the AC50 in experiment [1], in experiment [2], in experiment [3], in experiment [4], in [5] and in [6] was over 30 µM throughout. The concentration at half-maximal activity (AC50) (in experiment [7]; in experiment [8]; in experiment [9]; in experiment [10]; in experiment [11]; at Progesterone receptor) was over 30 µM in each case.

For `CCCC(C)(COC(N)=O)COC(N)=O` [MEPROBAMATE], the AC50 in experiment [1] was over 10 µM; in [2], over 10 µM; in experiment [3] it was over 10 µM; in [4], over 10 µM; in experiment [5] it was over 10 µM; in experiment [6] it was over 30 µM. Further, the AC50 in experiment [7] was over 30 µM; in experiment [8], over 10 µM; in [9], over 10 µM; in experiment [10] it was over 10 µM; in [11] it was over 30 µM; at Progesterone receptor it was over 10 µM.

For `OC[C@H]1O[C@@H](Oc2cc(O)cc(/C=C/c3ccc(O)cc3)c2)[C@H](O)[C@@H](O)[C@@H]1O` [PICEID], the concentration at half-maximal activity (AC50) in [1], in experiment [2], in experiment [3], in [4], in experiment [5] and in [6] was over 30 µM in each case. Also, the concentration at half-maximal activity (AC50) in [7] was over 30 µM; in experiment [8] it was over 30 µM; in experiment [9], 4.4 µM; in experiment [10], over 30 µM; in [11], over 30 µM; at Progesterone receptor it was over 30 µM.

Source of the values: ChEMBL document CHEMBL5291721, “A preclinical secondary pharmacology resource illuminates target-adverse drug reaction associations of marketed drugs” (Nat Commun, 2023).
